The source of these data is patent publication US10011615B2, “Heterobicyclo-substituted [1,2,4]triazolo[1,5-c]quinazolin-5-amine compounds with A2A anatagonist properties” (Merck Sharp & Dohme Corp., priority 2012, dated 2018).

A word on the EC50: it is the concentration giving half of the maximal effect. Read a high EC50 as a less potent agent.

T1 sequence (P29274 whole entry): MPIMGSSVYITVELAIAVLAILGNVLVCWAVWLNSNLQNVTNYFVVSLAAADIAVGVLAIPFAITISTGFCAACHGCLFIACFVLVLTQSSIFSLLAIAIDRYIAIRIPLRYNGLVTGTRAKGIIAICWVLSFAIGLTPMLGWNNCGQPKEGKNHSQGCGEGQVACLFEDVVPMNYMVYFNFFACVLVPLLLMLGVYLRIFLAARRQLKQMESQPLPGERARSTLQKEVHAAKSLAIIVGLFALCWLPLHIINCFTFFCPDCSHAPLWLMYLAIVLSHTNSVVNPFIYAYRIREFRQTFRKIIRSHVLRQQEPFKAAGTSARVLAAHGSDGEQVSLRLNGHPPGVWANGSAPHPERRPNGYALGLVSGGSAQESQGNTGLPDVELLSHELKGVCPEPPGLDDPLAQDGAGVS

The assay concerns the target T1, human A2a receptor (Homo sapiens, UniProt P29274).
T1 construct: purchased Perkin-Elmer RBHA2AM400UA; host or cells: HEK293 cell membranes
The experiment in a line: A2a receptor competition binding assay using Scintillation Proximity technology. The conditions noted are these: membranes from HEK293 cells expressing human A2a receptor; 0.5 nM tritiated radioligand; SPA beads; 1 h room temperature. How it is done: Binding affinities of compounds of the invention for the human A2a receptor were determined in a competition binding assay using Scintillation Proximity technology. Thus, 0.3 μg of membranes from HEK293 cells expressing the human A2a receptor were incubated with a compound of the invention at concentrations ranging from 3000 nM to 0.15 nM in a reaction mixture containing also 0.5 nM of a tritiated form of 5-amino-7-[2-phenethyl]-2-(furan-2-yl)-7H-pyrazolo[4,3-e][1,2,4]triazolo[1,5-c]pyrimidine (the tritiated compound) and 100 μg of wheat germ agglutin-coated yttrium silicate SPA beads for one hour at room temperature with agitation. The beads were then allowed to settle to the bottom of the wells for 1 hr, after which the membrane-associated radioactivity was determined by scintillation counting in a TopCount microplate reader. Ki values were determined using the Cheng-Prusoff equation.
Summary of Materials and Methods Used in A2a Activity Determination:
HEK293 cells expressing the human, rat, dog or monkey adenosine 2a receptor (Purchased from Perkin-Elmer # RBHA2AM400UA).
The Tritiated compound was prepared in-house by MRL Radiochemistry according to published methods.
Wheat germ agglutinin-coated yttrium silicate SPA beads (GE Healthcare#RPNQ0023). Dilute to 25 mg/ml in assay buffer.
Assay Buffer was prepared in house: Dulbecco's calcium and magnesium free phosphate buffered saline+10 mM MgCl2
Adenosine deaminase from calf intestine, 10 mg/2 ml (Roche) 10 102 105 001).
A2a antagonist standard (9-chloro-1-(2-furanyl)-[1,2,4]triazolo1,5-c]quinazolin-5-amine from Tocris Bioscience)
Make eight 1:3 serial dilutions in 100% DMSO from a 3 mM compound stock
Transfer 50 nl of compound into a 384-well OptiPlate (Perkin Elmer).
Typically, final concentrations of compound used in the assay ranged from 3000 nM to 0.152 nM.
Dilute a solution of the Tritiated compound to 1.25 nM in assay buffer. This is a 2.5× solution. The final concentration in the assay is 0.5 nM. Calculate the concentration by counting two 5 μl aliquots.
Use 0.25 ug of membrane/well. Dilute membranes to 9.7 μg/ml in assay buffer. Treat with 20 ug/ml adenosine deaminase (ADA) for 15 minutes at room temperature to degrade endogenous adenosine.
Use 100 μg/well wheat germ agglutinin-coated yttrium silicate SPA beads.
Mix ADA-treated membranes and SPA beads together for 30 min prior to assay.
To the Perkin-Elmer Optiplate-384 containing the compound titration add 20 μl of 2.5× solution of the Tritiated compound and 30 μl of the membrane-bead mixture. Incubate for one hour at room temperature with agitation.
Include total binding (assay buffer+1% DMSO) and non-specific binding (CGS15943, 1 μM) wells.
Allow the beads to settle for one hour.
A curve fitting program (i.e., Prism, Activity Base, Chemcart) is used to determine the EC50. The Ki value is calculated using the Cheng-Prusoff equation: K i=EC50/(1+(radioligand concentration/Kd)).
With `COc1cccc2c1nc(N)n1nc(CCN3Cc4nc(C(C)C)sc4C3)nc21` [Ex-242, 2-(2-(2-isopropyl-4H-pyrrolo[3,4-d]thiazol-5(6H)-yl)ethyl)-7-methoxy-[1,2,4]triazolo[1,5-c]quinazolin-5-amine], a half-maximal response (EC50) required 0.1 nM. That is a sub-nanomolar value.
`COc1cccc2c1nc(N)n1nc(CCN3Cc4cncnc4C3)nc21` [Ex-19, 2-(2-(5H-pyrrolo[3,4-d]pyrimidin-6(7H)-yl)ethyl)-7-methoxy-[1,2,4]triazolo[1,5-c]quinazolin-5-amine] yielded an EC50 of 7.6 nM.
As to `COc1cccc2c1nc(N)n1nc(CCN3Cc4ccc(N5CCN(c6ccc(F)cc6)CC5)nc4C3)nc21` [Ex-71], a half-maximal effect (EC50) was put at 2.9 nM.
For the compound `COc1cccc2c1nc(N)n1nc(CCN3CCc4nccnc4C3)nc21` [Ex-55, 2-(2-(7,8-dihydropyrido[4,3-b]pyrazin-6(5H)-yl)ethyl)-7-methoxy-[1,2,4]triazolo[1,5-c]quinazolin-5-amine], a half-maximal effect (EC50) was put at 1.8 nM. Against the preceding compound, the EC50 is about 1.6-fold lower.
`COc1cccc2c1nc(N)n1nc(CCN3CCc4nc(C5CC5)sc4C3)nc21` [Ex-30, 2-(2-(2-cyclopropyl-6,7-dihydrothiazolo[5,4-c]pyridin-5(4H)-yl)ethyl)-7-methoxy-[1,2,4]triazolo[1,5-c]quinazolin-5-amine]: the concentration for a half-maximal effect (EC50) worked out at 1.1 nM.
With `COc1cccc2c1nc(N)n1nc(CN3CCc4ncc(C(F)(F)F)cc4C3)nc21` [Ex-129, 7-methoxy-2-((3-(trifluoromethyl)-7,8-dihydro-1,6-naphthyridin-6(5H)-yl)methyl)-[1,2,4]tria.zolo[1,5-c]quinazolin-5-amine], the EC50 turned out to be 40.8 nM.
In the case of `COc1cccc2c1nc(N)n1nc(CCN3CCc4[nH]nc(C(F)(F)F)c4C3)nc21` [Ex-38, 7-methoxy-2-(2-(3-(trifluoromethyl)-6,7-dihydro-1H-pyrazolo[4,3-c]pyridin-5(4H)-yl)ethyl)-[1,2,4]triazolo[1,5-c]quinazolin-5-amine] it was 2 nM; in that of `COc1cccc2c1nc(N)n1nc(CCN3CCc4nc(C)oc4C3C)nc21` (stereo not shown) [Ex-236, 2-(2-(2,4-dimethyl-6,7-dihydrooxazolo[5,4-c]pyridin-5(4H)-yl)ethyl)-7-methoxy-[1,2,4]triazolo[1,5-c]quinazolin-5-amine], 1.4 nM; in that of `COc1cccc2c1nc(N)n1nc(CCN3CCc4c(N5CCC(F)(F)C5)ccnc4C3)nc21` [Ex-76], 3.7 nM.
With `Nc1nc2cc(F)ccc2c2nc(CCN3Cc4ccc(F)cc4C3)nn12` [Ex-91, 8-fluoro-2-[2-(5-fluoro-1,3-dihydro-2H-isoindol-2-yl)ethyl][1,2,4]triazolo[1,5-c]quinazolin-5-amine], the EC50 worked out at 26.1 nM. This EC50 is about 7.1-fold higher than that of the compound before.
In the case of `COc1cccc2c1nc(N)n1nc(CCN3Cc4nc(-c5ccccc5)[nH]c4C3)nc21` [Ex-34], the EC50 was 1.7 nM. Against the preceding compound, the EC50 is about 15-fold lower.
`COc1cccc2c1nc(N)n1nc(CCN3CCn4c(nnc4C(=O)NC(C)(C)C)C3)nc21` [Ex-2, 7-(2-(5-amino-7-methoxy-[1,2,4]triazolo[1,5-c]quinazolin-2-yl)ethyl)-N-tert-butyl-5,6,7,8-tetrahydro-[1,2,4]triazolo[4,3-a]pyrazine-3-carboxamide] came in with a concentration for a half-maximal effect (EC50) of 2.9 nM.
In the case of `N#Cc1cccc2c1nc(N)n1nc(CN3Cc4cccnc4C3)nc21` [Ex-197] it was 612 nM; in that of `COc1cccc2c1nc(N)n1nc(CN3CCn4c(Br)nnc4C3)nc21` [Ex-140, 2-((3-bromo-5,6-dihydro-[1,2,4]triazolo[4,3-a]pyrazin-7(8H)-yl)methyl)-7-methoxy-[1,2,4]triazolo[1,5-c]quinazolin-5-amine], 104 nM.
`COc1cccc2c1nc(N)n1nc(CCN3Cc4ccc(C(F)(F)F)cc4C3)nc21` [Ex-46, 7-methoxy-2-(2-(5-(trifluoromethyl)isoindolin-2-yl)ethyl)-[1,2,4]triazolo[1,5-c]quinazolin-5-amine] had a concentration for a half-maximal effect (EC50) of 18 nM.
In the case of `Nc1nc2c(Cl)cccc2c2nc(CCN3Cc4ccc(F)cc4C3)nn12` [Ex-80, 7-chloro-2-(2-(5-fluoroisoindolin-2-yl)ethyl)-[1,2,4]triazolo[1,5-c]quinazolin-5-amine], the concentration giving a half-maximal response (EC50) was determined as 12 nM.
Take `COc1cccc2c1nc(N)n1nc(CN3CCc4cccc(-c5cncnc5)c4C3)nc21` [Ex-177, 7-methoxy-2-((8-(pyrimidin-5-yl)-3,4-dihydroisoquinolin-2(1H)-yl)methyl)-[1,2,4]triazolo[l,5-c]quinazolin-5-amine]: the EC50 is 17 nM.
In the case of `COc1cccc2c1nc(N)n1nc(CN3Cc4cnc(C(F)(F)F)nc4C3)nc21` [Ex-152, 7-methoxy-2-((2-(trifluoromethyl)-5H-pyrrolo[3,4-d]pyrimidin-6(7H)-yl)methyl)-[1,2,4]triazolo[1,5-c]quinazolin-5-amine] it was 27.8 nM; in that of `COc1cccc2c1nc(N)n1nc(CN3CCn4c(nnc4C(=O)NC(C)(C)C)C3)nc21` [Ex-143, 7-((5-amino-7-methoxy-[1,2,4]triazolo[1,5-c]quinazolin-2-yl)methyl)-N-tert-butyl-5,6,7,8-tetrahydro-[1,2,4]triazolo[4,3-a]pyrazine-3-carboxamide], 74.4 nM.
Compound `CCOc1cccc2c1nc(N)n1nc(CN3CCc4cccnc4C3)nc21` [Ex-204, 2-((5,6-dihydro-1,7-naphthyridin-7(8H)-yl)methyl)-7-ethoxy-[1,2,4]triazolo[1,5-c]quinazolin-5-amine] had an EC50 of 40.7 nM.
In the case of `Nc1nc2c(F)cc(F)cc2c2nc(CCN3Cc4cccnc4C3)nn12` [Ex-100], a half-maximal response (EC50) required 31.2 nM.
In the case of `COc1cccc2c1nc(N)n1nc(CCN3CCc4ccc(-c5cncnc5)cc4C3)nc21` [Ex-172, 7-methoxy-2-(2-(7-(pyrimidin-5-yl)-3,4-dihydroisoquinolin-2(1H)-yl)ethyl)-[1,2,4]triazolo[1,5-c]quinazolin-5-amine] it was 6.1 nM; in that of `Nc1nc2c(Cl)cccc2c2nc(CCN3CCCc4ccccc43)nn12` [Ex-82], 24.7 nM; in that of `CCc1nnc2n1CCN(Cc1nc3c4cccc(OC)c4nc(N)n3n1)C2` [Ex-142, 2-((3-ethyl-5,6-dihydro-[1,2,4]triazolo[4,3-a]pyrazin-7(8H)-yl)methyl)-7-methoxy-[1,2,4]triazolo[1,5-c]quinazolin-5-amine], 350 nM.
Compound `Nc1nc2cc(F)ccc2c2nc(CCN3Cc4cccc(F)c4C3)nn12` [Ex-96] had a concentration for a half-maximal effect (EC50) of 56.2 nM.
`COc1cccc2c1nc(N)n1nc(CCCN3Cc4cccnc4C3)nc21` [Ex-227, 2-(3-(5H-pyrrolo[3,4-b]pyridin-6(7H)-yl)propyl)-7-methoxy-[1,2,4]triazolo[1,5-c]quinazolin-5-amine] displayed an EC50 of 7.7 nM.
In the case of `COc1cccc2c1nc(N)n1nc(CCN3Cc4cnc(C(F)(F)F)nc4C3)nc21` [Ex-18, 7-methoxy-2-(2-(2-(trifluoromethyl)-5H-pyrrolo[3,4-d]pyrimidin-6(7H)-yl)ethyl)-[1,2,4]triazolo[1,5-c]quinazolin-5-amine] it was 13.3 nM.
In the case of `COc1cccc2c1nc(N)n1nc(CCN3Cc4ccc(N5CCOC(C)(C)C5)nc4C3)nc21` [Ex-68] it was 7 nM; in that of `Nc1nc2c(F)cccc2c2nc(CCN3CCc4ccccc4C3)nn12` [Ex-87], 19.1 nM.
Next, `CCC(Cc1nc2c3cccc(OC)c3nc(N)n2n1)N1Cc2cccnc2C1` (stereo not shown) [Ex-111]: 11.9 nM; `COc1cccc2c1nc(N)n1nc(CN3Cc4cccnc4C3)nc21` [Ex-118, 2-((5H-pyrrolo[3,4-b]pyridin-6(7H)-yl)methyl)-7-methoxy-[1,2,4]triazolo[1,5-c]quinazolin-5-amine]: 5.4 nM; `COc1cccc2c1nc(N)n1nc(C[C@H](C)N3CCc4oc(C)nc4C3)nc21` [Ex-215, (S)-7-methoxy-2-(2-(2-methyl-6,7-dihydrooxazolo[4,5-c]pyridin-5(4H)-yl)propyl)-[1,2,4]triazolo[1,5-c]quinazolin-5-amine]: 5.7 nM.
Consider `COc1cccc2c1nc(N)n1nc(CCN3Cc4ccc(N5CCN(CC6CC6)CC5)nc4C3)nc21` [Ex-70], for which the half-maximal effective concentration (EC50) is 6.8 nM. The EC50 values of the last two compounds are within 1.5-fold of each other.
For the compound `COc1cccc2c1nc(N)n1nc(CCN3CCc4sccc4C3)nc21` [Ex-39], the EC50 was found to be 1.8 nM.
